Experimental data published in PubChem BioAssay AID1919006 (Molecular Pharmacology Branch, DTP, NCI, 2023).
Values belong to the compound of their own block, whether it stands above or below them.

System: 885512-296-R-J2-PDC complex spheroid growth, % test/control
Experiment: Anticancer human tumor 885512-296-R-J2-PDC patient-derived breast carcinoma cell line growth inhibition [AhR]
Conditions: for IC50: curve of first compound; for viability, T/C: stronger effect = lower value
In short: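 Agents were dosed in half-log steps down from roughly clinical Cmax, or from 10 microM where Cmax was unknown, alone and with AhR antagonists. Read-out: percent test/control growth of tumor spheroids containing HUVEC and MSC stromal cells.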

[1] = second compound 0.1 µM, first compound 0.0316 µM
[2] = second compound 0.1 µM, first compound 0.1 µM
[3] = second compound 0.1 µM, first compound 0.316 µM
[4] = second compound 0.1 µM, first compound 1 µM
[5] = second compound 0.316 µM, first compound 0.0316 µM
[6] = second compound 0.316 µM, first compound 0.1 µM
[7] = second compound 0.316 µM, first compound 0.316 µM
[8] = second compound 0.316 µM, first compound 1 µM
[9] = second compound 1 µM, first compound 0.0316 µM
[10] = second compound 1 µM, first compound 0.1 µM
[11] = second compound 1 µM, first compound 0.316 µM
[12] = second compound 1 µM, first compound 1 µM
[13] = second compound 3.16 µM, first compound 0.0316 µM
[14] = second compound 3.16 µM, first compound 0.1 µM
[15] = second compound 3.16 µM, first compound 0.316 µM
[16] = second compound 3.16 µM, first compound 1 µM
[17] = second compound 10 µM, first compound 0.0316 µM
[18] = second compound 10 µM, first compound 0.1 µM
[19] = second compound 10 µM, first compound 0.316 µM
[20] = second compound 10 µM, first compound 1 µM
[21] = second compound 0.1 µM, first compound 3.16 µM
[22] = second compound 0.1 µM, first compound 10 µM
[23] = second compound 0.316 µM, first compound 3.16 µM
[24] = second compound 0.316 µM, first compound 10 µM
[25] = second compound 1 µM, first compound 3.16 µM
[26] = second compound 1 µM, first compound 10 µM
[27] = second compound 3.16 µM, first compound 3.16 µM
[28] = second compound 3.16 µM, first compound 10 µM
[29] = second compound 10 µM, first compound 3.16 µM
[30] = second compound 10 µM, first compound 10 µM
[31] = second compound 0.1 µM, first compound 0.00949 µM
[32] = second compound 0.1 µM, first compound 0.03 µM
[33] = second compound 0.1 µM, first compound 0.0949 µM
[34] = second compound 0.1 µM, first compound 0.3 µM
[35] = second compound 0.316 µM, first compound 0.00949 µM
[36] = second compound 0.316 µM, first compound 0.03 µM
[37] = second compound 0.316 µM, first compound 0.0949 µM
[38] = second compound 0.316 µM, first compound 0.3 µM
[39] = second compound 1 µM, first compound 0.00949 µM
[40] = second compound 1 µM, first compound 0.03 µM
[41] = second compound 1 µM, first compound 0.0949 µM
[42] = second compound 1 µM, first compound 0.3 µM
[43] = second compound 3.16 µM, first compound 0.00949 µM
[44] = second compound 3.16 µM, first compound 0.03 µM
[45] = second compound 3.16 µM, first compound 0.0949 µM
[46] = second compound 3.16 µM, first compound 0.3 µM
[47] = second compound 10 µM, first compound 0.00949 µM
[48] = second compound 10 µM, first compound 0.03 µM
[49] = second compound 10 µM, first compound 0.0949 µM
[50] = second compound 10 µM, first compound 0.3 µM
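Further: spheroids exposed to compounds for seven days.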

Compound: CC1COCCN1c1cc(C2(S(C)(=N)=O)CC2)nc(-c2ccnc3[nH]ccc23)n1 (stereo not given) + Cc1ccccc1N=Nc1ccc(NC(=O)c2ccnn2C)c(C)c1
IC50 (second compound 0.1 µM): 1870 nM
IC50 (second compound 0.316 µM): 1700 nM
IC50 (second compound 1 µM): 1790 nM
IC50 (second compound 3.16 µM): 1840 nM
IC50 (second compound 10 µM): 637 nM
viability, T/C [1]: 108%
viability, T/C [2]: 102%
viability, T/C [3]: 96.3%
viability, T/C [4]: 87%
viability, T/C [21]: 19%
viability, T/C [22]: 4.98%
viability, T/C [5]: 103%
viability, T/C [6]: 127%
viability, T/C [7]: 106%
viability, T/C [8]: 77.9%
viability, T/C [23]: 17.9%
viability, T/C [24]: 5.69%
viability, T/C [9]: 108%
viability, T/C [10]: 117%
viability, T/C [11]: 95%
viability, T/C [12]: 83.6%
viability, T/C [25]: 17.4%
viability, T/C [26]: 5.01%
viability, T/C [13]: 90%
viability, T/C [14]: 92%
viability, T/C [15]: 97.6%
viability, T/C [16]: 85.7%
viability, T/C [27]: 17.9%
viability, T/C [28]: 5.33%
viability, T/C [17]: 56.9%
viability, T/C [18]: 53.3%
viability, T/C [19]: 49.6%
viability, T/C [20]: 48.2%
viability, T/C [29]: 13.4%
viability, T/C [30]: 5.82%

Compound: COc1ccc([C@@H](O)c2cc(-c3ncnc4cc(N5CCOCC5)ccc34)c(F)cc2Cl)nn1 + Cc1ccccc1N=Nc1ccc(NC(=O)c2ccnn2C)c(C)c1
IC50 (second compound 0.1 µM): 8290 nM
IC50 (second compound 0.316 µM): 7980 nM
IC50 (second compound 1 µM): 6550 nM
IC50 (second compound 3.16 µM): 5960 nM
IC50 (second compound 10 µM): < 31.6 nM
viability, T/C [1]: 107%
viability, T/C [2]: 106%
viability, T/C [3]: 91%
viability, T/C [4]: 80%
viability, T/C [21]: 74%
viability, T/C [22]: 44.3%
viability, T/C [5]: 92.9%
viability, T/C [6]: 117%
viability, T/C [7]: 110%
viability, T/C [8]: 95.7%
viability, T/C [23]: 71.4%
viability, T/C [24]: 44.8%
viability, T/C [9]: 112%
viability, T/C [10]: 96%
viability, T/C [11]: 100%
viability, T/C [12]: 78.9%
viability, T/C [25]: 60%
viability, T/C [26]: 44.2%
viability, T/C [13]: 85.4%
viability, T/C [14]: 92.9%
viability, T/C [15]: 83.2%
viability, T/C [16]: 69%
viability, T/C [27]: 66.4%
viability, T/C [28]: 38.9%
viability, T/C [17]: 46.2%
viability, T/C [18]: 49.9%
viability, T/C [19]: 47%
viability, T/C [20]: 48.3%
viability, T/C [29]: 38.9%
viability, T/C [30]: 26.2%

The next compounds have a lower IC50 (second compound 0.1 µM) than those just listed; values first:

IC50 (second compound 0.1 µM): 35.4 nM
IC50 (second compound 0.316 µM): 42 nM
IC50 (second compound 1 µM): 40.5 nM
IC50 (second compound 3.16 µM): 41 nM
IC50 (second compound 10 µM): 11.8 nM
Compound: CC1COCCN1c1cc(-c2ccnn2C)c2ccnc(-c3ccn[nH]3)c2n1 (stereo not given) + Cc1ccccc1N=Nc1ccc(NC(=O)c2ccnn2C)c(C)c1
viability, T/C (second compound 0.1 µM, first compound 0.00316 µM): 97.7%
viability, T/C (second compound 0.1 µM, first compound 0.01 µM): 97.6%
viability, T/C [1]: 53.6%
viability, T/C [2]: 11.1%
viability, T/C [3]: 3.35%
viability, T/C [4]: 2.33%
viability, T/C (second compound 0.316 µM, first compound 0.00316 µM): 108%
viability, T/C (second compound 0.316 µM, first compound 0.01 µM): 87.6%
viability, T/C [5]: 65.3%
viability, T/C [6]: 10.9%
viability, T/C [7]: 3.03%
viability, T/C [8]: 2.67%
viability, T/C (second compound 1 µM, first compound 0.00316 µM): 98.4%
viability, T/C (second compound 1 µM, first compound 0.01 µM): 85.5%
viability, T/C [9]: 61.6%
viability, T/C [10]: 12%
viability, T/C [11]: 4.35%
viability, T/C [12]: 2.65%
viability, T/C (second compound 3.16 µM, first compound 0.00316 µM): 89.8%
viability, T/C (second compound 3.16 µM, first compound 0.01 µM): 86.3%
viability, T/C [13]: 61.6%
viability, T/C [14]: 10.3%
viability, T/C [15]: 3.42%
viability, T/C [16]: 2.63%
viability, T/C (second compound 10 µM, first compound 0.00316 µM): 57.1%
viability, T/C (second compound 10 µM, first compound 0.01 µM): 47.7%
viability, T/C [17]: 38.3%
viability, T/C [18]: 7.15%
viability, T/C [19]: 2.64%
viability, T/C [20]: 2.57%

IC50 (second compound 0.1 µM): 206 nM
IC50 (second compound 0.316 µM): 182 nM
IC50 (second compound 1 µM): 189 nM
IC50 (second compound 3.16 µM): 262 nM
IC50 (second compound 10 µM): 88.2 nM
Compound: Nc1ncn(C2CC(O)C(CO)S2)c(=O)n1 (stereo not given) + Cc1ccccc1N=Nc1ccc(NC(=O)c2ccnn2C)c(C)c1
viability, T/C (second compound 0.1 µM, first compound 0.000949 µM): 92.7%
viability, T/C (second compound 0.1 µM, first compound 0.003 µM): 114%
viability, T/C [31]: 106%
viability, T/C [32]: 97.3%
viability, T/C [33]: 70.5%
viability, T/C [34]: 40.2%
viability, T/C (second compound 0.316 µM, first compound 0.000949 µM): 121%
viability, T/C (second compound 0.316 µM, first compound 0.003 µM): 108%
viability, T/C [35]: 134%
viability, T/C [36]: 117%
viability, T/C [37]: 63%
viability, T/C [38]: 40%
viability, T/C (second compound 1 µM, first compound 0.000949 µM): 106%
viability, T/C (second compound 1 µM, first compound 0.003 µM): 131%
viability, T/C [39]: 135%
viability, T/C [40]: 116%
viability, T/C [41]: 62.3%
viability, T/C [42]: 41.8%
viability, T/C (second compound 3.16 µM, first compound 0.000949 µM): 96.9%
viability, T/C (second compound 3.16 µM, first compound 0.003 µM): 104%
viability, T/C [43]: 106%
viability, T/C [44]: 101%
viability, T/C [45]: 69%
viability, T/C [46]: 47.4%
viability, T/C (second compound 10 µM, first compound 0.000949 µM): 52.6%
viability, T/C (second compound 10 µM, first compound 0.003 µM): 50.1%
viability, T/C [47]: 57.8%
viability, T/C [48]: 61.1%
viability, T/C [49]: 46.2%
viability, T/C [50]: 33.3%

IC50 (second compound 0.1 µM): 72.9 nM
IC50 (second compound 0.316 µM): 71 nM
IC50 (second compound 1 µM): 68.1 nM
IC50 (second compound 3.16 µM): 64.8 nM
IC50 (second compound 10 µM): 40.4 nM
Compound: O=C(C=Cn1cnc(-c2cc(C(F)(F)F)cc(C(F)(F)F)c2)n1)NNc1cnccn1 + Cc1ccccc1N=Nc1ccc(NC(=O)c2ccnn2C)c(C)c1
viability, T/C [31]: 111%
viability, T/C [32]: 113%
viability, T/C [33]: 31.6%
viability, T/C [34]: 4.42%
viability, T/C (second compound 0.1 µM, first compound 0.949 µM): 2.04%
viability, T/C (second compound 0.1 µM, first compound 3 µM): 0.74%
viability, T/C [35]: 114%
viability, T/C [36]: 121%
viability, T/C [37]: 27.2%
viability, T/C [38]: 4.07%
viability, T/C (second compound 0.316 µM, first compound 0.949 µM): 1.17%
viability, T/C (second compound 0.316 µM, first compound 3 µM): 0.77%
viability, T/C [39]: 118%
viability, T/C [40]: 115%
viability, T/C [41]: 23.7%
viability, T/C [42]: 4.28%
viability, T/C (second compound 1 µM, first compound 0.949 µM): 1.23%
viability, T/C (second compound 1 µM, first compound 3 µM): 1.12%
viability, T/C [43]: 99.1%
viability, T/C [44]: 89.9%
viability, T/C [45]: 30.1%
viability, T/C [46]: 4.05%
viability, T/C (second compound 3.16 µM, first compound 0.949 µM): 1.22%
viability, T/C (second compound 3.16 µM, first compound 3 µM): 0.73%
viability, T/C [47]: 54.6%
viability, T/C [48]: 64.4%
viability, T/C [49]: 22.7%
viability, T/C [50]: 3.99%
viability, T/C (second compound 10 µM, first compound 0.949 µM): 1.13%
viability, T/C (second compound 10 µM, first compound 3 µM): 0.63%
